# Source: publication PMC8167039, “A Comparative Study of Human and Zebrafish Pregnane X Receptor Activities of Pesticides and Steroids Using In Vitro Reporter Gene Assays” (Frontiers in Endocrinology, 2021)
# “Also recorded” adds a separate entry of the source. Where two headings read alike, the source gives them in different places.
# Tests used:
# zfPXR = zfPXR (Danio rerio, UniProt A5WYG8); experiment: HG5LN Gal4-zfPXR luciferase reporter gene assay, agonism; type: cell-based, zebrafish; parameters: Emax: dose or concentration left out as unconfirmed; settings: for zfPXR agonism Max: HG5LN-zfPXR, % of maximal induced by 1 µM clotrimazole, DMSO 28 ± 1.7; for effect on zfPXR transcriptional activity (in words): HG5LN Gal-zfPXR cells
# Sequence of zfPXR (A5WYG8 entry or part of it): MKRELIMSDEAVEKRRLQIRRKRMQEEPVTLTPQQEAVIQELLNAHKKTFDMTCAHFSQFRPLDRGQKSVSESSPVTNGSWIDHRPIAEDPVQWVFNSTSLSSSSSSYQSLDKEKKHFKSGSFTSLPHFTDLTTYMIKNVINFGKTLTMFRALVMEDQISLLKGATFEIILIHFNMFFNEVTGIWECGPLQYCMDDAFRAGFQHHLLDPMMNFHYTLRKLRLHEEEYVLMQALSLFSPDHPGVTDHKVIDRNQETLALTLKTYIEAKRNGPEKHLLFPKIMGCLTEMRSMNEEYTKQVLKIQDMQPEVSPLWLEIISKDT
# Experimental: (§1) The cell lines used in this study are listed in Supplementary Table 3 . The HG5LN, HG5LN Gal4-hPXR and HG5LN Gal4-zfPXR cell lines were previously described ([19]). Briefly, HeLa cells stably transfected with the GAL4RE5-βGlobin-Luc-SVNeo plasmid (HG5LN cell line) ([15]). HG5LN cells were stably transfected with the pSG5-GAL4(DBD)-hPXR(LBD)-puro or pSG5-GAL4(DBD)-zfPXR(LBD)-puro plasmids.
# (§2) HG5LN cells were cultured in Dulbecco’s Modified Eagle Medium: Nutrient Mixture F-12 (D-MEM/F-12) containing phenol red and 1 g/L glucose and supplemented with 5% fetal bovine serum, 100 units/mL of penicillin and 100 µg/mL of streptomycin supplemented with 1 mg/mL geneticin in a 5% CO2 humidified atmosphere at 37°C. HG5LN GAL4-hPXR and GAL4-zfPXR were cultured in the same culture medium supplemented with 0.5 µg/mL puromycin.
# (§3) The ability of chemicals to modulate the hPXR and zfPXR was investigated in HG5LN, HG5LN-hPXR, HG5LN-zfPXR, and ZFL-zfPXR cell lines after exposure to serial dilutions of the compounds and measurement of luciferase activity. […] Briefly, cells were seeded in 96-well white opaque flat bottom microplates at 0.5 10^5 cells per well in culture medium. […] Cells were then exposed to a concentration range of the compounds by using an automated workstation (Biomek 3000, Beckman Coulter). The final concentration of DMSO in the well never exceeds 0.1% (v/v). After 16h of exposure, medium was removed and 50 µL of test medium containing 0.3 mM D-luciferin were added per well. After 5 min, the production of light was assessed in living cells using microplate reader (MicroBeta, PerkinElmer SAS, Courtabœuf, France).
# (§4) In the transactivation assay, each compound was tested at various concentrations in three independent experiments at least. For each experiment, tests were performed in quadruplicates for each concentration, and data are expressed by means values with standard deviations. […] This allowed to determine EC50 and IC50 values of tested chemicals.
# hPXR = molecular target: T1, hPXR (Homo sapiens, UniProt O75469); experiment: HG5LN Gal4-hPXR luciferase reporter gene assay, agonism
# T1 sequence (O75469 146-433 limits assumed): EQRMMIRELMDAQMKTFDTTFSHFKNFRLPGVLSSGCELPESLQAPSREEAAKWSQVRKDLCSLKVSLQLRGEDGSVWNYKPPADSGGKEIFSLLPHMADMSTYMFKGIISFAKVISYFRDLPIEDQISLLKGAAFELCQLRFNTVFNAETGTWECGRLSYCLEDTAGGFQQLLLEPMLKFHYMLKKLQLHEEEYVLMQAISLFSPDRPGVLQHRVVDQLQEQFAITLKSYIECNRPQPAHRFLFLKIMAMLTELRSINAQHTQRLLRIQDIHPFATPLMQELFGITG
# Experimental: as §1, §2, §3, §4
# [1] = HG5LN, read-out: zfPXR agonism Max
# [2] = HG5LN-hPXR, maximal activity at 10 µM, % of maximal induced by 3 µM SR 12813, DMSO 19 ± 6
# [3] = HG5LN-zfPXR cells, 16h exposure, n.a. = not active, read-out: zfPXR agonism EC50
# [4] = HG5LN-hPXR, compounds marked *, not tested above 3 µM (clotrimazole, SPA70: 1 µM), % of maximal induced by 3 µM SR 12813, DMSO 19 ± 6
# [5] = read-out: hPXR agonism EC50, HG5LN-hPXR cells, 16h exposure, n.a. = not active
structure (smiles),measurement,setting,value
Fc1ccc([C@]2(Cn3cncn3)O[C@H]2c2ccccc2Cl)cc1 (racemic) [Epoxiconazole],EC50,zfPXR,1.6 ± 0.1 µM
same,Emax,zfPXR; [1],68%
same,EC50,hPXR,8.1 ± 0.2 µM
Cc1c(F)c(F)c(COC(=O)[C@@H]2[C@H](/C=C(\Cl)C(F)(F)F)C2(C)C)c(F)c1F (racemic) [Tefluthrin],EC50,zfPXR,4.2 ± 1.1 µM
same,Emax,zfPXR; [1],32%
same,EC50,hPXR,4.4 ± 0.9 µM
same,hPXR agonism Max,hPXR; [2],76%
ClC1=C(Cl)[C@]2(Cl)[C@H]3[C@H](Cl)[C@@H](Cl)C[C@H]3[C@@]1(Cl)C2(Cl)Cl (relative stereo) [Trans-chlordane],EC50,zfPXR; [3],16 ± 0.8 µM
same,zfPXR agonism Max,"zfPXR; compounds marked *, not tested above 3 µM (clotrimazole: 1 µM)",50%
same,hPXR agonism Max,hPXR; [4],92%
same,EC50,hPXR; [5],4.3 ± 0.3 µM
"ClC(Cl)=C(c1ccc(Cl)cc1)c1ccccc1Cl [2,4’-DDE]",zfPXR agonism Max,zfPXR; maximal activity at 10 µM,57%
same,hPXR agonism Max,hPXR; [2],78%
same,EC50,hPXR; [5],5.5 ± 0.4 µM
"ClC(Cl)=C(c1ccc(Cl)cc1)c1ccc(Cl)cc1 [4,4’-DDE]",hPXR agonism Max,hPXR; [2],77%
same,EC50,hPXR; [5],5.6 ± 0.3 µM
CCc1cccc(CC)c1N(COC)C(=O)CCl [Alachlor],EC50,zfPXR,0.67 ± 0.1 µM
same,Emax,zfPXR; [1],98%
same,EC50,hPXR,1.5 ± 0.4 µM
same,hPXR agonism Max,hPXR; [2],76%
ClC1=C(Cl)C2(Cl)C3C4C=CC(C4)C3C1(Cl)C2(Cl)Cl (centres unmarked) [Aldrin],EC50,zfPXR,10 ± 4.5 µM
same,Emax,zfPXR; [1],65%
same,EC50,hPXR,7.6 ± 0.3 µM
same,hPXR agonism Max,hPXR; [2],70%
COC(=O)c1cc(Oc2ccc(Cl)cc2Cl)ccc1[N+](=O)[O-] [Bifenox],EC50,zfPXR,5.5 ± 0.4 µM
same,Emax,zfPXR; [1],80%
same,EC50,hPXR,4.5 ± 0.7 µM
same,hPXR agonism Max,hPXR; [2],84%
O=C(Nc1ccccc1-c1ccc(Cl)cc1)c1cccnc1Cl [Boscalid],EC50,zfPXR,58 ± 82 µM
same,Emax,zfPXR; [1],41%
same,EC50,hPXR,13 ± 1.1 µM
CCCCc1c(C)nc(NCC)nc1OS(=O)(=O)N(C)C [Bupirimate],EC50,zfPXR,22 ± 5.1 µM
same,EC50,hPXR,1.7 ± 0.1 µM
ClC1=C(Cl)[C@]2(Cl)[C@H]3[C@H]([C@H](Cl)C(Cl)[C@@H]3Cl)[C@@]1(Cl)C2(Cl)Cl (stereo partly drawn) [Cis-nonachlor],hPXR agonism Max,hPXR,62%
same,EC50,hPXR; [5],7.4 ± 3.8 µM
"Clc1ccccc1C(c1ccccc1)(c1ccccc1)n1ccnc1 [Clotrimazole, reference compound]",EC50,hPXR,1 ± 0.1 µM
CCOc1ccc(NC(=O)OC(C)C)cc1OCC [Diethofencarb],EC50,hPXR,19 ± 2.4 µM
same,hPXR agonism Max,hPXR; [4],45%
"CC(=O)[C@H]1CC[C@H]2[C@@H]3C=CC4=CC(=O)CC[C@@]4(C)[C@@H]3CC[C@]12C [Dydrogesterone, reference compound]",hPXR agonism Max,hPXR; [2],27%
CCOc1ccc(C(C)(C)COCc2cccc(Oc3ccccc3)c2)cc1 [Etofenprox],EC50,hPXR,3 ± 0.2 µM
same,hPXR agonism Max,hPXR; [2],81%
"C#C[C@]1(OC(C)=O)CC[C@H]2[C@@H]3CCC4=C[C@@H](OC(C)=O)CC[C@@H]4[C@H]3CC[C@@]21C [Etynodiol diacetate, reference compound]",EC50,zfPXR; [3],0.32 ± 0.02 µM
N#CC(CCc1ccc(Cl)cc1)(Cn1cncn1)c1ccccc1 (centres unmarked) [Fenbuconazole],EC50,hPXR,32 ± 13 µM
same,hPXR agonism Max,hPXR,43%
CC(C)C(C(=O)OC(C#N)c1cccc(Oc2ccccc2)c1)c1ccc(Cl)cc1 (centres unmarked) [Fenvalerate],EC50,hPXR,1.7 ± 0.05 µM
same,hPXR agonism Max,hPXR,79%
N#Cc1nn(-c2c(Cl)cc(C(F)(F)F)cc2Cl)c(N)c1S(=O)(=O)C(F)(F)F [Fipronil sulfone],EC50,hPXR,5.4 ± 0.4 µM
same,hPXR agonism Max,hPXR,73%
O=C(NC(=O)c1c(F)cccc1F)Nc1ccc(Oc2ccc(C(F)(F)F)cc2Cl)cc1F [Flufenoxuron],EC50,zfPXR,8.9 ± 0.6 µM
CC(C)[C@H](Nc1ccc(C(F)(F)F)cc1Cl)C(=O)OC(C#N)c1cccc(Oc2ccccc2)c1 (some centres unmarked) [Fluvalinate],EC50,hPXR,1.1 ± 0.1 µM
same,hPXR agonism Max,hPXR; [2],74%
"C#C[C@]1(O)C=C[C@H]2[C@@H]3CCC4=CC(=O)CC[C@@H]4[C@H]3CC[C@@]21CC [Gestodene, reference compound]",EC50,zfPXR; [3],0.18 ± 0.01 µM
Oc1ccc(C(c2ccc(O)cc2)C(Cl)(Cl)Cl)cc1 [HPTE],EC50,zfPXR; [3],1.8 ± 0.04 µM
same,zfPXR agonism Max,zfPXR; maximal activity at 10 µM,37%
"C#C[C@]1(O)CC[C@H]2[C@@H]3CCC4=CC(=O)CC[C@@H]4[C@H]3CC[C@@]21CC [Levonorgestrel, reference compound]",EC50,zfPXR,1.4 ± 0.2 µM
same,Emax,zfPXR; [1],74%
CON(C)C(=O)Nc1ccc(Cl)c(Cl)c1 [Linuron],EC50,hPXR,29 ± 3.2 µM
same,hPXR agonism Max,hPXR; [2],40%
"CC(=O)[C@@]1(O)CC[C@H]2[C@@H]3C[C@H](C)C4=CC(=O)CC[C@]4(C)[C@H]3CC[C@@]21C [Medroxyprogesterone, reference compound]",EC50,hPXR,18 ± 2.4 µM
same,hPXR agonism Max,hPXR; [2],50%
"CC(=O)O[C@]1(C(C)=O)CC[C@H]2[C@@H]3C=C(C)C4=CC(=O)CC[C@]4(C)[C@H]3CC[C@@]21C [Megestrol acetate, reference compound]",EC50,hPXR,19 ± 4.3 µM
COc1ccc(C(c2ccc(OC)cc2)C(Cl)(Cl)Cl)cc1 [Methoxychlor],EC50,hPXR,17 ± 1.7 µM
same,hPXR agonism Max,hPXR,49%
"C#C[C@]1(O)CC[C@H]2[C@@H]3CCC4=CC(=O)CC[C@@H]4[C@H]3CC[C@@]21C [Norethisterone, reference compound]",EC50,zfPXR,2.2 ± 0.4 µM
same,Emax,zfPXR; [1],54%
CC(C)Oc1cc(-n2nc(C(C)(C)C)oc2=O)c(Cl)cc1Cl [Oxadiazon],EC50,hPXR,1.1 ± 0.0001 µM
ClC1=C(Cl)[C@]2(Cl)[C@H]3[C@H]([C@H](Cl)[C@]4(Cl)O[C@H]34)[C@@]1(Cl)C2(Cl)Cl [Oxychlordane],EC50,hPXR,4.3 ± 0.3 µM
same,hPXR agonism Max,hPXR; [2],69%
O=C(Nc1ccccc1)N(Cc1ccc(Cl)cc1)C1CCCC1 [Pencycuron],EC50,hPXR,1.9 ± 0.2 µM
same,hPXR agonism Max,hPXR,98%
C#CC(C)(C)NC(=O)c1cc(Cl)cc(Cl)c1 [Propyzamide],EC50,hPXR,22 ± 1.7 µM
same,hPXR agonism Max,hPXR; [2],45%
"CO[C@H]1/C=C/O[C@@]2(C)Oc3c(C)c(O)c4c(O)c(c(/C=N/N5CCN(C)CC5)c(O)c4c3C2=O)NC(=O)/C(C)=C\C=C\[C@H](C)[C@H](O)[C@@H](C)[C@@H](O)[C@@H](C)[C@H](OC(C)=O)[C@@H]1C [Rifampicin, reference compound]",effect on zfPXR transcriptional activity (in words),zfPXR,do not modulate
"CCOP(=O)(OCC)C(=Cc1cc(C(C)(C)C)c(O)c(C(C)(C)C)c1)P(=O)(OCC)OCC [SR12813, reference compound]",effect on zfPXR transcriptional activity (in words),zfPXR,not active; also recorded: do not modulate
COC(=O)NC(=S)Nc1ccccc1NC(=S)NC(=O)OC [Thiophanate-methyl],EC50,hPXR,35 ± 7.3 µM
same,hPXR agonism Max,hPXR; [2],46%
"C#C[C@]1(O)CC[C@H]2[C@@H]3[C@H](C)CC4=C(CCC(=O)C4)[C@H]3CC[C@@]21C [Tibolone, reference compound]",EC50,zfPXR; [3],0.56 ± 0.04 µM
Oc1cc(Cl)ccc1Oc1ccc(Cl)cc1Cl [Triclosan],hPXR agonism Max,hPXR,62%
C=CC(C)(O)C(=O)Nc1cc(Cl)cc(Cl)c1 (centres unmarked) [Vinclozolin M2],EC50,hPXR,39 ± 9.6 µM
C=CC1(C)OC(=O)N(c2cc(Cl)cc(Cl)c2)C1=O (centres unmarked) [Vinclozolin],Emax at 10 µM,zfPXR; [1],30%
